Experiments:
Assay type in all cases: cell-based
MDA-MB-468 = test: Cell growth inhibition, CellTiter-Glo Luminescent Cell Viability Assay, MDA-MB-468; conditions: Homo sapiens, 96 h, MDA-MB-468 cells, 4 days incubation
Description: (§1) Cell growth inhibitory activity of representative Compounds of the Disclosure was determined in various cell lines using CellTiter-Glo® Luminescent Cell Viability Assay. Cells were seeded in 384-well white opaque cell culture plates at a density of 2,000 cells/well with serially diluted compounds and incubated at 37° C. in an atmosphere of 95% air and 5% CO2 for 4 days. Cell viability was determined using the CellTiter-Glo® Luminescent Cell Viability Assay Kit (Promega, Madison, Wis.) according to the manufacture's instruction. Briefly, a volume of CellTiter-Glo® Reagent equal to the volume of cell culture medium was added to each well, and then the plates were incubated at room temperature for 10-20 minutes. The luminescent signal was measured using a Tecan Infinite M1000 multimode microplate reader (Tecan, Morrisville, N.C.). The half maximal inhibitory concentration (IC50) was calculated using the GraphPad Prism 5 software (GraphPad Software, La Jolla, Calif.).

MOLM-13 = test: Cell growth inhibition, CellTiter-Glo Luminescent Cell Viability Assay, MOLM-13; conditions: Homo sapiens, MOLM-13 cells, 4 days incubation
Summary of the method: (§2)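 Cells were seeded at 2,000/well with serially diluted compound and grown 4 days at 37° C, 5% CO2. Viability was read by CellTiter-Glo luminescence after 10-20 min at room temperature, and IC50 was fitted from the dose-response.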

MDA-MB-231 = test: Cell growth inhibition, CellTiter-Glo Luminescent Cell Viability Assay, MDA-MB-231; conditions: Homo sapiens, MDA-MB-231 cells, 4 days incubation
Summary of the method: as §2

RS4; 11 = test: Cell growth inhibition, CellTiter-Glo Luminescent Cell Viability Assay, RS4;11; conditions: Homo sapiens, 96 h, RS4;11 cells, 4 days incubation
Description: as §1

SMILES	IC50 (MDA-MB-468) [nM]	IC50 (MOLM-13; 96 h) [nM]	IC50 (MDA-MB-231; 96 h) [nM]	IC50 (RS4; 11) [nM]	IC50 (MOLM-13; MOLM-13, 96 h) [nM]	IC50 (MDA-MB-231; MDA-MB-231, 96 h) [nM]
Cc1c(C#Cc2cn(CCCCNc3cccc4c3CN(C3CCC(=O)NC3=O)C4=O)nn2)sc2c1C(c1ccc(Cl)cc1)=N[C@@H](C)c1nnc(C)n1-2 (stereo partly drawn) [Cpd. No. 6, 3-(4-((4-(4-(((S)-4-(4-chlorophenyl)-3,6,9-trimethyl-6H-thieno[3,2-f][1,2,4]triazolo[4,3-a][1,4]diazepin-2-yl)ethynyl)-1H-1,2,3-triazol-1-yl)butyl)amino)-1-oxoisoindolin-2-yl)piperidine-2,6-dione]	1.7	0.77	2.3	< 0.0015	–	–
Cc1c(C#Cc2ccc(CCCCNc3cccc4c3CN(C3CCC(=O)NC3=O)C4=O)cn2)sc2c1C(c1ccc(Cl)cc1)=NCc1nnc(C)n1-2 (stereo not shown) [Cpd. No. 7, 3-(4-((4-(6-((4-(4-chlorophenyl)-3,9-dimethyl-6H-thieno[3,2-f][1,2,4]triazolo[4,3-a][1,4]diazepin-2-yl)ethynyl)pyridin-3-yl)butyl)amino)-1-oxoisoindolin-2-yl)piperidine-2,6-dione]	10.7	4.2	6.08	0.81	–	–
Cc1c(C#Cc2ccc(CCCCNc3cccc4c3CN(C3CCC(=O)NC3=O)C4=O)cn2)sc2c1C(c1ccc(Cl)cc1)=N[C@@H](C)c1nnc(C)n1-2 (stereo partly drawn) [Cpd. No. 8, 3-(4-((4-(6-(((S)-4-(4-chlorophenyl)-3,6,9-trimethyl-6H-thieno[3,2-f][1,2,4]triazolo[4,3-a][1,4]diazepin-2-yl)ethynyl)pyridin-3-yl)butyl)amino)-1-oxoisoindolin-2-yl)piperidine-2,6-dione]	0.65	0.26	0.17	0.19	–	–
Cc1c(C#Cc2ccc(CCCCOc3cccc4c3C(=O)N(C3CCC(=O)NC3=O)C4=O)cn2)sc2c1C(c1ccc(Cl)cc1)=NCc1nnc(C)n1-2 (stereo not shown) [Cpd. No. 9, 4-(4-(6-((4-(4-chlorophenyl)-3,9-dimethyl-6H-thieno[3,2-f][1,2,4]triazolo[4,3-a][1,4]diazepin-2-yl)ethynyl)pyridin-3-yl)butoxy)-2-(2,6-dioxopiperidin-3-yl)isoindoline-1,3-dione]	33	19	20.4	2.3	–	–
Cc1c(C#Cc2ccc(CCCCOc3cccc4c3C(=O)N(C3CCC(=O)NC3=O)C4=O)cn2)sc2c1C(c1ccc(Cl)cc1)=N[C@@H](C)c1nnc(C)n1-2 (stereo partly drawn) [Cpd. No. 10, 4-(4-(6-(((S)-4-(4-chlorophenyl)-3,6,9-trimethyl-6H-thieno[3,2-f][1,2,4]triazolo[4,3-a][1,4]diazepin-2-yl)ethynyl)pyridin-3-yl)butoxy)-2-(2,6-dioxopiperidin-3-yl)isoindoline-1,3-dione]	5.2	2.5	1.6	0.26	–	–
Cc1c(C#Cc2cnn(CCCC#Cc3cccc4c3CN(C3CCC(=O)NC3=O)C4=O)c2)sc2c1C(c1ccc(Cl)cc1)=NCc1nnc(C)n1-2 (stereo not shown) [Cpd. No. 20, 3-(4-(5-(4-((4-(4-chlorophenyl)-3,9-dimethyl-6H-thieno[3,2-f][1,2,4]triazolo[4,3-a][1,4]diazepin-2-yl)ethynyl)-1H-pyrazol-1-yl)pent-1-yn-1-yl)-1-oxoisoindolin-2-yl)piperidine-2,6-dione]	0.2	–	–	0.1	0.8	0.08
Cc1c(C#Cc2cnn(CCCCNc3cccc4c3C(=O)N(C3CCC(=O)NC3=O)C4=O)c2)sc2c1C(c1ccc(Cl)cc1)=NCc1nnc(C)n1-2 (stereo not shown) [Cpd. No. 21, 4-((4-(4-((4-(4-chlorophenyl)-3,9-dimethyl-6H-thieno[3,2-f][1,2,4]triazolo[4,3-a][1,4]diazepin-2-yl)ethynyl)-1H-pyrazol-1-yl)butyl)amino)-2-(2,6-dioxopiperidin-3-yl)isoindoline-1,3-dione]	6.5	–	–	0.3	1.1	3.8
Cc1c(C#Cc2cnn(CCCCNc3cccc4c3C(=O)N(C3CCC(=O)NC3=O)C4=O)c2)sc2c1C(c1ccc(Cl)cc1)=N[C@@H](C)c1nnc(C)n1-2 (stereo partly drawn) [Cpd. No. 22, 4-((4-(4-(((S)-4-(4-chlorophenyl)-3,6,9-trimethyl-6H-thieno[3,2-f][1,2,4]triazolo[4,3-a][1,4]diazepin-2-yl)ethynyl)-1H-pyrazol-1-yl)butyl)amino)-2-(2,6-dioxopiperidin-3-yl)isoindoline-1,3-dione]	1.8	–	–	0.2	0.9	0.9
Cc1c(C#Cc2cnn(CCCCCc3cccc4c3CN(C3CCC(=O)NC3=O)C4=O)c2)sc2c1C(c1ccc(Cl)cc1)=NCc1nnc(C)n1-2 (stereo not shown) [Cpd. No. 23, 3-(4-(5-(4-((4-(4-chlorophenyl)-3,9-dimethyl-6H-thieno[3,2-f][1,2,4]triazolo[4,3-a][1,4]diazepin-2-yl)ethynyl)-1H-pyrazol-1-yl)pentyl)-1-oxoisoindolin-2-yl)piperidine-2,6-dione]	4.2	–	–	0.3	1.9	1.7
Cc1c(C#Cc2cnn(CCCCCc3cccc4c3CN(C3CCC(=O)NC3=O)C4=O)c2)sc2c1C(c1ccc(Cl)cc1)=N[C@@H](C)c1nnc(C)n1-2 (stereo partly drawn) [Cpd. No. 24, 3-(4-(5-(4-(((S)-4-(4-chlorophenyl)-3,6,9-trimethyl-6H-thieno[3,2-f][1,2,4]triazolo[4,3-a][1,4]diazepin-2-yl)ethynyl)-1H-pyrazol-1-yl)pentyl)-1-oxoisoindolin-2-yl)piperidine-2,6-dione]	< 0.015	–	–	< 0.015	< 0.015	< 0.015
Cc1c(C#Cc2cnn(CCCC#Cc3cccc4c3C(=O)N(C3CCC(=O)NC3=O)C4=O)c2)sc2c1C(c1ccc(Cl)cc1)=NCc1nnc(C)n1-2 (stereo not shown) [Cpd. No. 25, 4-(5-(4-((4-(4-chlorophenyl)-3,9-dimethyl-6H-thieno[3,2-f][1,2,4]triazolo[4,3-a][1,4]diazepin-2-yl)ethynyl)-1H-pyrazol-1-yl)pent-1-yn-1-yl)-2-(2,6-dioxopiperidin-3-yl)isoindoline-1,3-dione]	34.9	–	–	1	9.1	24.2
Cc1c(C#Cc2cn(CCCC#Cc3cccc4c3CN(C3CCC(=O)NC3=O)C4=O)cn2)sc2c1C(c1ccc(Cl)cc1)=NCc1nnc(C)n1-2 (stereo not shown) [Cpd. No. 26, 3-(4-(5-(4-((4-(4-chlorophenyl)-3,9-dimethyl-6H-thieno[3,2-f][1,2,4]triazolo[4,3-a][1,4]diazepin-2-yl)ethynyl)-1H-imidazol-1-yl)pent-1-yn-1-yl)-1-oxoisoindolin-2-yl)piperidine-2,6-dione]	> 100	39.2	> 100	> 10	–	–
Cc1c(C#Cc2cn(CCCC#Cc3cccc4c3C(=O)N(C3CCC(=O)NC3=O)C4=O)cn2)sc2c1C(c1ccc(Cl)cc1)=NCc1nnc(C)n1-2 (stereo not shown) [Cpd. No. 27, 4-(5-(4-((4-(4-chlorophenyl)-3,9-dimethyl-6H-thieno[3,2-f][1,2,4]triazolo[4,3-a][1,4]diazepin-2-yl)ethynyl)-1H-imidazol-1-yl)pent-1-yn-1-yl)-2-(2,6-dioxopiperidin-3-yl)isoindoline-1,3-dione]	> 100	–	–	> 10	32	> 100
Cc1c(C#Cc2cncn2CCCC#Cc2cccc3c2CN(C2CCC(=O)NC2=O)C3=O)sc2c1C(c1ccc(Cl)cc1)=NCc1nnc(C)n1-2 (stereo not shown) [Cpd. No. 28, 3-(4-(5-(5-((4-(4-chlorophenyl)-3,9-dimethyl-6H-thieno[3,2-f][1,2,4]triazolo[4,3-a][1,4]diazepin-2-yl)ethynyl)-1H-imidazol-1-yl)pent-1-yn-1-yl)-1-oxoisoindolin-2-yl)piperidine-2,6-dione]	> 100	–	–	> 10	66.1	> 100
Cc1c(C#Cc2cncn2CCCC#Cc2cccc3c2C(=O)N(C2CCC(=O)NC2=O)C3=O)sc2c1C(c1ccc(Cl)cc1)=NCc1nnc(C)n1-2 (stereo not shown) [Cpd. No. 29, 4-(5-(5-((4-(4-chlorophenyl)-3,9-dimethyl-6H-thieno[3,2-f][1,2,4]triazolo[4,3-a][1,4]diazepin-2-yl)ethynyl)-1H-imidazol-1-yl)pent-1-yn-1-yl)-2-(2,6-dioxopiperidin-3-yl)isoindoline-1,3-dione]	> 100	–	–	7	22.8	> 100
Cc1c(C#Cc2cnn(CCCC#Cc3ccc(F)c4c3CN(C3CCC(=O)NC3=O)C4=O)c2)sc2c1C(c1ccc(Cl)cc1)=NCc1nnc(C)n1-2 (stereo not shown) [compound 142, 3-(4-(5-(4-((4-(4-chlorophenyl)-3,9-dimethyl-6H-thieno[3,2-f][1,2,4]triazolo[4,3-a][1,4]diazepin-2-yl)ethynyl)-1H-pyrazol-1-yl)pent-1-yn-1-yl)-7-fluoro-1-oxoisoindolin-2-yl)piperidine-2,6-dione]	32.9	–	–	1	6.4	30.4

From patent US10975093B2, “Fused 1,4-diazepines as BET protein degraders” (THE REGENTS OF THE UNIVERSITY OF MICHIGAN, priority 2016, dated 2021)
